Assay results as given in ChEMBL document CHEMBL5465560, “Selectivity Literature for EUbOPEN Chemogenomic Library” (2024).

How the values were obtained:
[1] = molecular target: T1, Ephrin type-B receptor 3 (Homo sapiens) (UniProt P54753); experiment: Selectivity interaction (KinomeScan (DiscoverX)) EUB0000229b EPHB3; conditions: at 10 µM
T1 sequence (whole entry): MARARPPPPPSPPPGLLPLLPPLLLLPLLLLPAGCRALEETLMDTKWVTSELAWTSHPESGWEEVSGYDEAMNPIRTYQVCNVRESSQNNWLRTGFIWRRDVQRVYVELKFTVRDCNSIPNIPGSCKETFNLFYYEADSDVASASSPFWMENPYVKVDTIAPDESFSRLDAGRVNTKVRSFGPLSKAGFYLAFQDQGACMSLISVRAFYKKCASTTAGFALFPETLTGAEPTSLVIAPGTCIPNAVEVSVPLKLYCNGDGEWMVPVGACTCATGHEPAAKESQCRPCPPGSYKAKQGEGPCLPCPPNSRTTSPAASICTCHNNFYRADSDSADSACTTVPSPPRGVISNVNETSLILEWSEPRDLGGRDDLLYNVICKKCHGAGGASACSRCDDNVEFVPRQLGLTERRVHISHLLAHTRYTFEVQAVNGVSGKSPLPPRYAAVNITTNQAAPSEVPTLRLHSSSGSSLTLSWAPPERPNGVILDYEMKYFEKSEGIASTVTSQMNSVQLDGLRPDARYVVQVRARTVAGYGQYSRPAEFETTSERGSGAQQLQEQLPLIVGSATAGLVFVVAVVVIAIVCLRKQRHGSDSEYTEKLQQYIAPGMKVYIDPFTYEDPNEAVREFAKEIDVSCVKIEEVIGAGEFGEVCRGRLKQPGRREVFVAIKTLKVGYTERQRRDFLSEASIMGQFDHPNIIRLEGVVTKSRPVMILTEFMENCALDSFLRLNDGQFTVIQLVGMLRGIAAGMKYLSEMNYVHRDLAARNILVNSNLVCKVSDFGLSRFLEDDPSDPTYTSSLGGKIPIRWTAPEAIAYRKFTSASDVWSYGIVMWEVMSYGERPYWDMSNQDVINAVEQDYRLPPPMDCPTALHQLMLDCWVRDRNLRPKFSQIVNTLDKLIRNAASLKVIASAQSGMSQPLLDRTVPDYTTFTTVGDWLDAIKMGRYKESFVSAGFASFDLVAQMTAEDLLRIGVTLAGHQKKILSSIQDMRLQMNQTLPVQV

SRSF protein kinase 1 = SRSF protein kinase 1 (Homo sapiens, UniProt Q96SB4); experiment: Selectivity interaction (Kinase panel (DSF assay)) EUB0001559a SRPK1
[2] = molecular target: Mitogen-activated protein kinase kinase kinase 11 (Homo sapiens) (UniProt Q16584); experiment: Selectivity interaction (KinomeScan (DiscoverX)) EUB0000045b MAP3K11
[3] = molecular target: Tyrosine-protein kinase Fyn (Homo sapiens) (UniProt P06241); experiment: Selectivity interaction (KinomeScan (DiscoverX)) EUB0000695a FYN; conditions: at 100 nM
[4] = molecular target: Beta-3 adrenergic receptor (Homo sapiens) (UniProt P13945); experiment: Selectivity interaction (GPCR panel (PDSP screen)) EUB0001079a ADRB3; conditions: at 10 µM
[5] = molecular target: Mitogen-activated protein kinase 8 (Homo sapiens, UniProt P45983); experiment: Selectivity interaction (Enyzmatic assay) EUB0000601a MAPK8
[6] = tested on: Tyrosine-protein kinase ABL1 (Homo sapiens), P00519 [F317L]; experiment: Selectivity interaction (KinomeScan (DiscoverX)) EUB0000607a ABL1; conditions: at 10 µM
[7] = molecular target: T2, Phosphatidylinositol 4,5-bisphosphate 3-kinase catalytic subunit delta isoform (Homo sapiens) (UniProt O00329); experiment: Selectivity interaction (KinomeScan (DiscoverX)) EUB0000092b PIK3CD; conditions: at 10 µM
T2 sequence (whole entry): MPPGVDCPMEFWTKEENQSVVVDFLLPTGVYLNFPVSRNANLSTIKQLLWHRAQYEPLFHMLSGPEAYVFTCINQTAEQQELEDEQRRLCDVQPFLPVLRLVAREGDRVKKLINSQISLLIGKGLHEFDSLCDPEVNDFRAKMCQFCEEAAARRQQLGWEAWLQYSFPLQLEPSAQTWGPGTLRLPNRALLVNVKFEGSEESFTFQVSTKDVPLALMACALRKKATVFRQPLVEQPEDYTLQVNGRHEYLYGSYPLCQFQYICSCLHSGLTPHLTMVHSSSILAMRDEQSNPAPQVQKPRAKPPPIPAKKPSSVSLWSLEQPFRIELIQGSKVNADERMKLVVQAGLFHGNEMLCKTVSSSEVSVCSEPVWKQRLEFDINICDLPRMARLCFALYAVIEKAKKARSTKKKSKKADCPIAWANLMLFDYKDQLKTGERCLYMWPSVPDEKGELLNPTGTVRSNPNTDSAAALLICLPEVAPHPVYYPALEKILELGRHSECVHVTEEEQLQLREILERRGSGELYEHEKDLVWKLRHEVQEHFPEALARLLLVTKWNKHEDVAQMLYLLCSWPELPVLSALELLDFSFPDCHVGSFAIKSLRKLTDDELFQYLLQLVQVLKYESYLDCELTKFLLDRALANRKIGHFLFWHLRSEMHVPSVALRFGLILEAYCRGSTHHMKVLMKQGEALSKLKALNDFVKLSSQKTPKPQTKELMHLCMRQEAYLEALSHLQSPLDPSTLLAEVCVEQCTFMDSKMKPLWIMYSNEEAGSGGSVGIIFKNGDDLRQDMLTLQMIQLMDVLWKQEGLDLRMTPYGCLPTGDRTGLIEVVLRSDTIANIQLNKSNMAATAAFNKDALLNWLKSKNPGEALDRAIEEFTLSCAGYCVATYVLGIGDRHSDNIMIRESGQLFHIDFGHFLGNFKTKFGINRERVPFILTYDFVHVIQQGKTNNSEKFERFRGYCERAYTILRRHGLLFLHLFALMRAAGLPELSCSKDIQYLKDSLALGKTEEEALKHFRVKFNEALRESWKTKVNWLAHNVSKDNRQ

Mitogen-activated protein kinase kinase kinase 11 (Homo sapiens), sequence (Q16584 whole entry, looked up): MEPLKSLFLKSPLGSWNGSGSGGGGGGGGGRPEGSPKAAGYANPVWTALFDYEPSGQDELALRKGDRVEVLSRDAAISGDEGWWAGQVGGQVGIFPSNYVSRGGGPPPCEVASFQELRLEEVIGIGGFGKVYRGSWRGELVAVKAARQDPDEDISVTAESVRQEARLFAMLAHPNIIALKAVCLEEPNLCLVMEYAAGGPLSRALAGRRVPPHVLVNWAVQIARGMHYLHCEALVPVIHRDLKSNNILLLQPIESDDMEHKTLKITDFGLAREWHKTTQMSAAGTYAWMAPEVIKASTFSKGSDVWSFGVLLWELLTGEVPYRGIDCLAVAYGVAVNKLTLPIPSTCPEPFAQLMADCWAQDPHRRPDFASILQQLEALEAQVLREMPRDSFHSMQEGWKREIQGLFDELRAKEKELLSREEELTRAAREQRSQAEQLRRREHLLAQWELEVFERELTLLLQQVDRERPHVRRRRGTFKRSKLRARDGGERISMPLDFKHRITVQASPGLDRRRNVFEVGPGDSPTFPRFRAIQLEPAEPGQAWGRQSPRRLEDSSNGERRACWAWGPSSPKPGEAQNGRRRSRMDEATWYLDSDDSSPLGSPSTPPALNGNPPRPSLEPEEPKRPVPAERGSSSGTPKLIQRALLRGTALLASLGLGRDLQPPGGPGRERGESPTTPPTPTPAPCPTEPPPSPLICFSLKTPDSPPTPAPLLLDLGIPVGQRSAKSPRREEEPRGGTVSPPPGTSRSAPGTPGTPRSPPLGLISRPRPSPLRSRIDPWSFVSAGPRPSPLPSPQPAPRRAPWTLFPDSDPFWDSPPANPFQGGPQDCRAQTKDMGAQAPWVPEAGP
SRSF protein kinase 1, sequence (Q96SB4 whole entry): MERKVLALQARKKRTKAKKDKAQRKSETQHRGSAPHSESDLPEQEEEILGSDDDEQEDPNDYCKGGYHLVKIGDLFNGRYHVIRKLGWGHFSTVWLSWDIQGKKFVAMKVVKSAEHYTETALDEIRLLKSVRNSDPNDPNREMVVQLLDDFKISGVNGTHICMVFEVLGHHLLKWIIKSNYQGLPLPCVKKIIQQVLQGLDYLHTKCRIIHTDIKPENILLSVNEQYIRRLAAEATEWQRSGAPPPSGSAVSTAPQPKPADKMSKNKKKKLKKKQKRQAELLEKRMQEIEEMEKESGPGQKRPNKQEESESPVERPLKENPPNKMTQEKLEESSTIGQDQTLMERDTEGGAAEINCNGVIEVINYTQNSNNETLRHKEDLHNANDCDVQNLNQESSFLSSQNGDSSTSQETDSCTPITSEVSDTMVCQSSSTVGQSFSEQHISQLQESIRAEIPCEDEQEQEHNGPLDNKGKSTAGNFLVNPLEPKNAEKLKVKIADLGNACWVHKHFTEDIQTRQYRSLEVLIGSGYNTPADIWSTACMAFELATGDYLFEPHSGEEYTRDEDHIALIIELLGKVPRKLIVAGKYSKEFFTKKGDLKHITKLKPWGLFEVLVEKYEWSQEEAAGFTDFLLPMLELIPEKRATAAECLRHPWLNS
Tyrosine-protein kinase ABL1 (Homo sapiens), P00519 [F317L], sequence (P00519 whole entry F317L, canonical isoform): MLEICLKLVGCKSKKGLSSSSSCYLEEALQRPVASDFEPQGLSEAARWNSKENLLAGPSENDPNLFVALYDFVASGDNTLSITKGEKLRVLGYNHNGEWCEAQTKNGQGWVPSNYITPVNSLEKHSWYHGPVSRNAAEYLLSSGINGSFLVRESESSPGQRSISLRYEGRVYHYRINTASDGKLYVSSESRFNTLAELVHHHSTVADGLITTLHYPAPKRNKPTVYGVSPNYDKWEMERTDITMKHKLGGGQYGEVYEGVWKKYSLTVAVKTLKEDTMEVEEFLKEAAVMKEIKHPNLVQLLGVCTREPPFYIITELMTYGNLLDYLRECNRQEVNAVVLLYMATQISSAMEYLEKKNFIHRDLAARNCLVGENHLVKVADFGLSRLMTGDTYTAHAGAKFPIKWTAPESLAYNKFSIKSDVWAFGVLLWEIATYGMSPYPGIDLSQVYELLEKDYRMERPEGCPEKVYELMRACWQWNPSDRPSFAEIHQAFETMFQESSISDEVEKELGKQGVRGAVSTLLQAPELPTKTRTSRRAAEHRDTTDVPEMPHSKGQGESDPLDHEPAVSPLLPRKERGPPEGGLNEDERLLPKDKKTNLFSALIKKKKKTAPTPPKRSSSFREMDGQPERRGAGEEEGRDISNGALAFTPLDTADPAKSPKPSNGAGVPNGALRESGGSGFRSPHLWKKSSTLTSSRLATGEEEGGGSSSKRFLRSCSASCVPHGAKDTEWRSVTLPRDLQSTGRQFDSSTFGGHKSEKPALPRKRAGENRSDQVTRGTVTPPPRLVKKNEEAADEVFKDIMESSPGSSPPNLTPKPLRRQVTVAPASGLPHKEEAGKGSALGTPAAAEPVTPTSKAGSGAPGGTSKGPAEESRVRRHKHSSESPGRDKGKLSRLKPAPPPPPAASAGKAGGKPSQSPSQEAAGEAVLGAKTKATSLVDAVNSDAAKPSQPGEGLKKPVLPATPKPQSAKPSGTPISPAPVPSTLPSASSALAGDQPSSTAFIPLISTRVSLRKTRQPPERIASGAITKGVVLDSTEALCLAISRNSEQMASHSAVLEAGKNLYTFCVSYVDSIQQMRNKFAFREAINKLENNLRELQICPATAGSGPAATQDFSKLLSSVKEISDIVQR
Tyrosine-protein kinase Fyn (Homo sapiens), sequence (P06241 2-537 limits assumed): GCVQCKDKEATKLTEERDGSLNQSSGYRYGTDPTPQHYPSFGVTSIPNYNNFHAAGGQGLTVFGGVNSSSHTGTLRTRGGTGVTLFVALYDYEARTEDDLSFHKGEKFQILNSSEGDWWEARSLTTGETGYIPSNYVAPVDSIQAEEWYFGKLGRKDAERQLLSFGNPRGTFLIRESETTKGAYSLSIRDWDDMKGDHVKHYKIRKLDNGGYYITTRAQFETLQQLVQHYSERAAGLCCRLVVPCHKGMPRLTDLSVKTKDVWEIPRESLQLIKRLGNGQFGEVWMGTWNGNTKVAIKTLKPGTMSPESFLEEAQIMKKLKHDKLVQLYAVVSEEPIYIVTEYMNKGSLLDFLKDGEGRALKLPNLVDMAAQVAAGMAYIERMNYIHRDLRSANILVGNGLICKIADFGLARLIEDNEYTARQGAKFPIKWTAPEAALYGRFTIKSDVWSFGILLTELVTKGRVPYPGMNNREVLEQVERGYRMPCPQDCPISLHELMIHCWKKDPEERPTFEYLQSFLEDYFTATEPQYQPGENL
Beta-3 adrenergic receptor (Homo sapiens), sequence (P13945 whole entry, looked up): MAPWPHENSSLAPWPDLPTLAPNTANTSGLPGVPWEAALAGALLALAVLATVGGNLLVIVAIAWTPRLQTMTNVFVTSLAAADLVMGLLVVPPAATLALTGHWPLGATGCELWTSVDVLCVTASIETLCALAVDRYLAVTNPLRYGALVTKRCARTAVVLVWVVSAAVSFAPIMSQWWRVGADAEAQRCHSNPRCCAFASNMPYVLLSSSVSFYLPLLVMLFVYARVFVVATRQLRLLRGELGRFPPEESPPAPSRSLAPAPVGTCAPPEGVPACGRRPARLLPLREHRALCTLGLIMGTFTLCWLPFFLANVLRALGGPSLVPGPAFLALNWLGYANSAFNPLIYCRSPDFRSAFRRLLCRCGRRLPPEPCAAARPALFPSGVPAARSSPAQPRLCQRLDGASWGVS
Mitogen-activated protein kinase 8, sequence (P45983 whole entry): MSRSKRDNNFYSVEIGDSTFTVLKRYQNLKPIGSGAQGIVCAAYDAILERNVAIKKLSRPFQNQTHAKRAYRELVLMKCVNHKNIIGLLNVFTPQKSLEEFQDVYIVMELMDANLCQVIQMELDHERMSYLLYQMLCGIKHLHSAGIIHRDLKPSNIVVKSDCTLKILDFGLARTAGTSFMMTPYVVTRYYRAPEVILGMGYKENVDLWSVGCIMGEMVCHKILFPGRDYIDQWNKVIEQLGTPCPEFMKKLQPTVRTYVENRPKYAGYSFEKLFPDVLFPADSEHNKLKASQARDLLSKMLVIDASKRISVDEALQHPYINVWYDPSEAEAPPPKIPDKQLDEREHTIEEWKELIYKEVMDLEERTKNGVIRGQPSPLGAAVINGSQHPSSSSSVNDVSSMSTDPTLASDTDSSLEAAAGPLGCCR

Work on `COc1cc(N(C)c2ccnc3ccc(C(F)(F)F)cc23)cc(OC)c1OC` yielded a % binding [1] of 85%.

With `CN(C(=O)c1cnn2cccnc12)c1cc2c(cc1N1CCOCC1)C(=O)N(C[C@@H](F)C(C)(C)O)C2` the dTM (SRSF protein kinase 1) was 0.2 K.

`C=CC(=O)Nc1cc(-n2c(=O)ccc3cnc4ccc(-c5ccc(NS(C)(=O)=O)cc5)cc4c32)ccc1C` gave a % of control ([2]; at 1 µM) of 91% and a % of control ([2]; at 10 µM) of 87%.

`Cc1cc(F)c(C(=O)Nc2cccc(-c3nncn3C(C)C)n2)cc1-n1cnc(C2CC2)c1` showed a % of control [3] of 99%.

With `Nc1cnc(N2CCc3cc(S(=O)(=O)Nc4c(F)cc(Cl)cc4F)cc(N4CCCC4=O)c32)nc1` [TP-020n] the % of inhibition [4] was -2.69%.

`CCc1cc(Nc2nccc(-c3c(-c4ccc(OC)c(C(=O)Nc5c(F)cccc5F)c4)nc4ccccn34)n2)c(OC)cc1N1CCC(N2CCN(S(C)(=O)=O)CC2)CC1` was tested, and the IC50 [5] was > 10 µM.

For `CNC(=O)Nc1ccc(-c2nc(N3CC4CCC(C3)O4)c3cnn(C4CCC5(CC4)OCCO5)c3n2)cc1`, the % of control [6] was 96%.

`CCC(=O)N1CCN(c2ccc(-n3c(=O)ccc4cnc5ccc(-c6cnc7ccccc7c6)cc5c43)cc2C(F)(F)F)CC1` showed a % of control [7] of 51%.
